Values of other authors, collected in US20040156894A1, “Use of edible acids in fast-dispersing pharmaceutical solid dosage forms” (priority 2003, published 2004).
≈ marks a conversion by molar mass, not a printed value.

water solubility | SMILES
< 1000 µg/mL | CN1C(C(=O)Nc2ccccn2)=C(O)c2ccccc2S1(=O)=O [piroxicam]
4 µg/mL (≈ 12.7 µM) | CS(=O)(=O)c1ccc(C2=C(c3ccccc3)C(=O)OC2)cc1 [rofecoxib]
